Results on 30 compounds are retold here after patent US7091202B2, “4-arylspirocycloalkyl-2-aminopyrimidine carboxamide KCNQ potassium channel modulators” (Bristol-Myers Squibb Company, priority 2004, dated 2006).

T1 sequence (O43526 whole entry): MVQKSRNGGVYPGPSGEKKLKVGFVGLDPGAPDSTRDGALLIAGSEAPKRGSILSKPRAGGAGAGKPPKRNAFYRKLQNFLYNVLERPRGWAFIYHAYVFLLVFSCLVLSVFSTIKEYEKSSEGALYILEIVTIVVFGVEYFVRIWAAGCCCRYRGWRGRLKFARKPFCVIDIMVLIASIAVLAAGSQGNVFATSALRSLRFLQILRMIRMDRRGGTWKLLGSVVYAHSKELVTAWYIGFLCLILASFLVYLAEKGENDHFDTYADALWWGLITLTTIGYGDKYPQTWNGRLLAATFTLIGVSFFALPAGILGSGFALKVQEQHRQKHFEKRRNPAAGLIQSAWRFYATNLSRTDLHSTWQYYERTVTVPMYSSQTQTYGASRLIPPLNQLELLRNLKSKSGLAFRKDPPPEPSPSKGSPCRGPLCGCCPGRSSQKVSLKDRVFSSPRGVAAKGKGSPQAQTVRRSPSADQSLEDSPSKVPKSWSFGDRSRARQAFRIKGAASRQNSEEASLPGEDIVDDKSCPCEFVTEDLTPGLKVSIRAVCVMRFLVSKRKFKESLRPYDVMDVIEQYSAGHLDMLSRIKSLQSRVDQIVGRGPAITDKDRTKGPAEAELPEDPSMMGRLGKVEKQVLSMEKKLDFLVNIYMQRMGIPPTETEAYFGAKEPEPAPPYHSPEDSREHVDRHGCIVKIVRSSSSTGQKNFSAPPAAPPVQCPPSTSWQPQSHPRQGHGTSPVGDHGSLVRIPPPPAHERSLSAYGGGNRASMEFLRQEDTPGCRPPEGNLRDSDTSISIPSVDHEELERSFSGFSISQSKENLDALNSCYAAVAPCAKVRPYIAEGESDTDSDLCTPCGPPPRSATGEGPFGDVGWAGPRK
T1 sequence (O43525 whole entry): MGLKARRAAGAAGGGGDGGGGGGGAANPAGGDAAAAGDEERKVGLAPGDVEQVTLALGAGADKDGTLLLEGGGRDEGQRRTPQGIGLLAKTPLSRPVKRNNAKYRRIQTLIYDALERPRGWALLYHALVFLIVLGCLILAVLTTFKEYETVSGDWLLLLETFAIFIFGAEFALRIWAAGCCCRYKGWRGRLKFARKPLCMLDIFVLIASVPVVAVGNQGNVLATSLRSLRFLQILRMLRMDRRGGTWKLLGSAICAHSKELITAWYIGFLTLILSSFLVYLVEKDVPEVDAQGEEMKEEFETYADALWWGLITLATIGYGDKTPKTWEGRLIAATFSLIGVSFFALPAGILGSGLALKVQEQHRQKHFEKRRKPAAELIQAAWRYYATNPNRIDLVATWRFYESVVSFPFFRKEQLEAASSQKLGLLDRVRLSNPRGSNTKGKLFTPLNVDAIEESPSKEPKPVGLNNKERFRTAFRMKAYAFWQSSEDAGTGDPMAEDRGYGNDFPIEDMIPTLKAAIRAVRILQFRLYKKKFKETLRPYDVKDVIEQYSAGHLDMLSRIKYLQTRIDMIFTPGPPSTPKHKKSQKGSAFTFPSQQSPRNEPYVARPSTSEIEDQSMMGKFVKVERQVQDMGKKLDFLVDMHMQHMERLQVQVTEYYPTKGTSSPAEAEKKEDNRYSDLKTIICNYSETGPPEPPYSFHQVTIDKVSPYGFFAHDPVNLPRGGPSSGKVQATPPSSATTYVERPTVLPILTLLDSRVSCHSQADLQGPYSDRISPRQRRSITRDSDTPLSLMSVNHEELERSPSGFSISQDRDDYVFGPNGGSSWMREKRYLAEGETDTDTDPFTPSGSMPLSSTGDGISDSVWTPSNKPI

One assay has as its target T1, hQ23 (HEK-293 cell line stably transfected with one of the members of the KCNQ family) (Homo sapiens, UniProt O43525+O43526).
T1 construct: expressed in transfected cells; host or cells: HEK-293, stably transfected
Nature of the assay: Thallium flux assay for KCNQ channel blockers (FLIPR, BTC dye). The class given is cell-based. The note with it: Table 2; thallium flux, HEK-293. The procedure, abridged: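 FLIPR thallium flux readout (BTC dye, 2 μM AM ester) in stably transfected KCNQ HEK-293 cells, chloride-free HEPES buffer pH 7.3, Tl2SO4 stimulus. IC50s were fitted with a single-site logistic equation across 10 points at 1:3 dilutions, defined as 50% of positive-control block; minimal active concentration meant signal ≥4 SD over DMSO controls.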
As for `CC1CCC(Nc2ncc(C(=O)NC(C)c3ccc(F)cc3)c(C3(c4ccccc4)CC3)n2)CC1` (stereo not drawn) [Example 49, 5-pyrimidinecarboxamide, N-[1-(4-fluorophenyl)ethyl]-2-[(4-methylcyclohexyl)amino]-4-(1-phenylcyclopropyl)-], the EC50 worked out at 575 nM. In the case of `O=C(NCc1ccc2c(c1)OCO2)c1cnc(N2CCCC2)nc1C1(c2ccccc2)CC1` [Example 32, 5-pyrimidinecarboxamide, N-(1,3-benzodioxol-5-ylmethyl)-4-(1-phenylcyclopropyl)-2-(1-pyrrolidinyl)-], the midpoint of the response, the EC50, lay at 413 nM. On the same count and under the same terms, for `CN(C)CCNc1ncc(C(=O)N(C)CCc2ccccc2)c(C2(c3ccccc3)CC2)n1` [Example 28, 5-pyrimidinecarboxamide, 2-[[2-(dimethylamino)ethyl]amino]-N-methyl-4-(1-phenylcyclopropyl)-N-(2-phenylethyl)-] the value was 301 nM.

Still in this assay, the particulars now being: Table 3; thallium flux, HEK-293.
The compound `CC1CCCN(c2ncc(C(=O)NCc3cccc4ccccc34)c(C3(c4ccc(Cl)cc4)CCC3)n2)C1` (stereo not drawn) [Example 62, 5-pyrimidinecarboxamide, 4-[1-(4-chlorophenyl)cyclobutyl]-2-(3-methyl-1-piperidinyl)-N-(1-naphthalenylmethyl)-] registered an EC50 of 39 nM. Consider `O=C(NCc1ccc2c(c1)OCO2)c1cnc(N2CCCC2)nc1C1(c2ccc(Cl)cc2)CCC1` [Example 56, 5-pyrimidinecarboxamide, N-(1,3-benzodioxol-5-ylmethyl)-4-[1-(4-chlorophenyl)cyclobutyl]-2-(1-pyrrolidinyl)-], for which the EC50 amounted to 719 nM. The compound `O=C(NCc1cccc2ccccc12)c1cnc(NC2CC2)nc1C1(c2ccc(Cl)cc2)CCC1` [Example 60, 5-pyrimidinecarboxamide, 4-[1-(4-chlorophenyl)cyclobutyl]-2-(cyclopropylamino)-N-(1-naphthalenylmethyl)-] yielded a 50% effective concentration (EC50) of 614 nM. Regarding `CN(C)CCNc1ncc(C(=O)N2CCc3ccccc3C2)c(C2(c3ccc(Cl)cc3)CCC2)n1` [Example 54, isoquinoline, 2-[[4-[1-(4-chlorophenyl)cyclobutyl]-2-[[2-(dimethylamino)ethyl]amino]-5-pyrimidinyl]carbonyl]-1,2,3,4-tetrahydro-], the EC50 is 475 nM.

Staying with this assay, now noted: hQ23 cells, thallium flux.
The compound `O=C(NCc1ccc2c(c1)OCO2)c1cnc(NC2CCCC2)nc1C1(c2ccc(Cl)cc2)CCCC1` [Example 156, 5-pyrimidinecarboxamide, N-(1,3-benzodioxol-5-ylmethyl)-4-[1-(4-chlorophenyl)cyclopentyl]-2-(cyclopentylamino)-] registered a concentration for a half-maximal effect (EC50) of 70 nM. Compound `CC1CCC(Nc2ncc(C(=O)N3CCc4ccccc4C3)c(C3(c4ccc(F)cc4)CCCC3)n2)CC1` (stereo not drawn) [Example 210, isoquinoline, 2-[[4-[1-(4-fluorophenyl)cyclopentyl]-2-[(4-methylcyclohexyl)amino]-5-pyrimidinyl]carbonyl]-1,2,3,4-tetrahydro-] registered an EC50 of 375 nM. Still for that read-out and setting: for `O=C(NCc1cccc2ccccc12)c1cnc(NC2CCCC2)nc1C1(c2ccc(Cl)cc2)CCCC1` [Example 172, 5-pyrimidinecarboxamide, 4-[1-(4-chlorophenyl)cyclopentyl]-2-(cyclopentylamino)-N-(1-naphthalenylmethyl)-] the value was 373 nM; for `CCC(C)Nc1ncc(C(=O)NC(C)c2cccc3ccccc23)c(C2(c3ccc(Cl)cc3)CCCC2)n1` (stereo not drawn) [Example 162, 5-pyrimidinecarboxamide, 4-[1-(4-chlorophenyl)cyclopentyl]-2-[(1-methylpropyl)amino]-N-[1-(1-naphthalenyl)ethyl]-], 113 nM. In turn, `CC1CCN(c2ncc(C(=O)NCc3ccc(Cl)c(Cl)c3)c(C3(c4ccccc4)CCCC3)n2)CC1` [Example 108, 5-pyrimidinecarboxamide, N-[(3,4-dichlorophenyl)methyl]-2-(4-methyl-1-piperidinyl)-4-(1-phenylcyclopentyl)-] registered an EC50 of 37 nM. With `CN(C)CCNc1ncc(C(=O)NCc2cc(F)cc(C(F)(F)F)c2)c(C2(c3ccccc3)CCCC2)n1` [Example 129, 5-pyrimidinecarboxamide, 2-[[2-(dimethylamino)ethyl]amino]-N-[[3-fluoro-5-(trifluoromethyl)phenyl]methyl]-4-(1-phenylcyclopentyl)-], the EC50 was 20 nM. On the same count and under the same terms, for `CC1CCC(Nc2ncc(C(=O)NCc3cccc4ccccc34)c(C3(c4ccc(Cl)cc4)CCCC3)n2)CC1` (stereo not drawn) [Example 166, 5-pyrimidinecarboxamide, 4-[1-(4-chlorophenyl)cyclopentyl]-2-[(4-methylcyclohexyl)amino]-N-(1-naphthalenylmethyl)-] the value was 16 nM; for `CC(NC(=O)c1cnc(N2CCCC2)nc1C1(c2ccc(Cl)cc2)CCCC1)c1cccc2ccccc12` (stereo not drawn) [Example 158, 5-pyrimidinecarboxamide, 4-[1-(4-chlorophenyl)cyclopentyl]-N-[1-(1-naphthalenyl)ethyl]-2-(1-pyrrolidinyl)-], 40 nM; for `CC1CCCN(c2ncc(C(=O)NCc3ccc(Cl)c(Cl)c3)c(C3(c4ccccc4)CCCC3)n2)C1` (stereo not drawn) [Example 107, 5-pyrimidinecarboxamide, N-[(3,4-dichlorophenyl)methyl]-2-(3-methyl-1-piperidinyl)-4-(1-phenylcyclopentyl)-], 111 nM. Turning to `CC1CCCN(c2ncc(C(=O)NC(C)c3ccc(F)cc3)c(C3(c4ccc(Cl)cc4)CCCC3)n2)C1` (stereo not drawn) [Example 198, 5-pyrimidinecarboxamide, 4-[1-(4-chlorophenyl)cyclopentyl]-N-[1-(4-fluorophenyl)ethyl]-2-(3-methyl-1-piperidinyl)-], it took 124 nM to reach a half-maximal effect (EC50).

The compound `CC1CCN(c2ncc(C(=O)NCc3cccc4ccccc34)c(C3(c4ccccc4)CCCC3)n2)CC1` [Example 104, 5-pyrimidinecarboxamide, 2-(4-methyl-1-piperidinyl)-N-(1-naphthalenylmethyl)-4-(1-phenylcyclopentyl)-] registered an EC50 of 10 nM. Compound `CCN(Cc1ccccc1)C(=O)c1cnc(N2CCC(C)CC2)nc1C1(c2ccc(F)cc2)CCCC1` [Example 230, 5-pyrimidinecarboxamide, N-ethyl-4-[1-(4-fluorophenyl)cyclopentyl]-2-(4-methyl-1-piperidinyl)-N-(phenylmethyl)-] yielded an EC50 of 168 nM. On the same count and under the same terms, for `CC(NC(=O)c1cnc(NC2CCCC2)nc1C1(c2ccc(Cl)cc2)CCCC1)c1ccc(F)cc1` (stereo not drawn) [Example 201, 5-pyrimidinecarboxamide, 4-[1-(4-chlorophenyl)cyclopentyl]-2-(cyclopentylamino)-N-[1-(4-fluorophenyl)ethyl]-] the value was 592 nM. `CN1CCN(c2ncc(C(=O)NCc3ccc(Cl)cc3Cl)c(C3(c4ccc(Cl)cc4)CCCC3)n2)CC1` [Example 179, 5-pyrimidinecarboxamide, 4-[1-(4-chlorophenyl)cyclopentyl]-N-[(2,4-dichlorophenyl)methyl]-2-(4-methyl-1-piperazinyl)-]: the EC50 was determined as 535 nM. With `CCC(C)Nc1ncc(C(=O)NCc2cccc3ccccc23)c(C2(c3ccc(Cl)cc3)CCCC2)n1` (stereo not drawn) [Example 171, 5-pyrimidinecarboxamide, 4-[1-(4-chlorophenyl)cyclopentyl]-2-[(1-methylpropyl)amino]-N-(1-naphthalenylmethyl)-], the EC50 amounted to 158 nM.

For the compound `CC1CCN(c2ncc(C(=O)NC(C)c3ccc(F)cc3)c(C3(c4ccccc4)CCCC3)n2)CC1` (stereo not drawn) [Example 134, 5-pyrimidinecarboxamide, N-[1-(4-fluorophenyl)ethyl]-2-(4-methyl-1-piperidinyl)-4-(1-phenylcyclopentyl)-], a half-maximal response (EC50) required 98 nM. Same read-out and setting: the result for `CC1CCC(Nc2ncc(C(=O)NCc3cc(F)cc(C(F)(F)F)c3)c(C3(c4ccccc4)CCCC3)n2)CC1` (stereo not drawn) [Example 123, 5-pyrimidinecarboxamide, N-[[3-fluoro-5-(trifluoromethyl)phenyl]methyl]-2-[(4-methylcyclohexyl)amino]-4-(1-phenylcyclopentyl)-] reads 10 nM; that for `CC1CCN(c2ncc(C(=O)N3CCCCC3)c(C3(c4ccccc4)CCCC3)n2)CC1` [Example 77, piperidine, 1-[[2-(4-methyl-1-piperidinyl)-4-(1-phenylcyclopentyl)-5-pyrimidinyl]carbonyl]-], 164 nM. Compound `CCN(Cc1ccccc1)C(=O)c1cnc(NC2CCCC2)nc1C1(c2ccccc2)CCCC1` [Example 88, 5-pyrimidinecarboxamide, 2-(cyclopentylamino)-N-ethyl-4-(1-phenylcyclopentyl)-N-(phenylmethyl)-] displayed an EC50 of 926 nM.

The assay is the same for the next values; noted with them: hQ23 cells, thallium flux assay.
The compound `CC1CCN(c2ncc(C(=O)NCc3ccc4c(c3)OCO4)c(C3(c4ccc(F)cc4)CCCC3)n2)CC1` [Example 237, 5-pyrimidinecarboxamide, N-(1,3-benzodioxol-5-ylmethyl)-4-[1-(4-fluorophenyl)cyclopentyl]-2-(4-methyl-1-piperidinyl)-] came in with an EC50 of 540 nM.

Take `CCC(C)Nc1ncc(C(=O)NCc2cccc3ccccc23)c(C2(c3ccc(F)cc3)CCCC2)n1` (stereo not drawn) [Example 252, 5-pyrimidinecarboxamide, 4-[1-(4-fluorophenyl)cyclopentyl]-2-[(1-methylpropyl)amino]-N-(1-naphthalenylmethyl)-]: the EC50 came to 350 nM. `O=C(NCc1ccc(Cl)cc1Cl)c1cnc(NC2CC2)nc1C1(c2ccc(F)cc2)CCCC1` [Example 259, 5-pyrimidinecarboxamide, 2-(cyclopropylamino)-N-[(2,4-dichlorophenyl)methyl]-4-[1-(4-fluorophenyl)cyclopentyl]-]: the EC50 stood at 869 nM. `CC1CCN(c2ncc(C(=O)NCc3ccc(Cl)c(Cl)c3)c(C3(c4ccc(F)cc4)CCCC3)n2)CC1` [Example 256, 5-pyrimidinecarboxamide, N-[(3,4-dichlorophenyl)methyl]-4-[1-(4-fluorophenyl)cyclopentyl]-2-(4-methyl-1-piperidinyl)-] yielded an EC50 of 10 nM.
